{
  "source": "paper PMC2211560",
  "about": "(PLoS Medicine, 2008)",
  "tested_on": "Akt",
  "experiment": "PRAS40 (threonine 246) phosphorylation in tumor tissue by IHC",
  "format": "in vivo, human",
  "conditions": "for pPRAS 40 Induction: statistically significant increase S2 vs S1 (p < 0.05, Wilcoxon), individual patients",
  "description": "The following antibodies were used for IHC: anti-PTEN (6H2.1, #ABM-2052, Cascade BioScience; 1:400 dilution), anti-Ki-67 (MIB-1, M7240, DakoCytomation; 1:100 Dilution), anti-phospho Ser235/236 S6 (91B2, #4857, Cell Signaling; 1:50 dilution), anti phospho Ser240/244 S6 (#2215, Cell Signaling; 1:200 dilution), anti-phospho-PRAS 40 (#44–1100G, Biosource; 1:200 dilution), anti-phospho Ser473 Akt (736E11, #3787, Cell Signaling; 1:50 dilution), anti-phospho Thr389 p70 S6 Kinase (#9205, Cell Signaling; 1:100 Dilution), and anti phospho Ser1108 eIF4G at 1:400 (#2441, Cell Signaling; 1:400 dilution). Antigen retrieval was performed using 0.01 M citrate buffer, pH 6.0 for 30 min in an oven and peroxidase activity was quenched with 3% hydrogen peroxide in water. Primary antibodies were diluted in PBS /2% bovine serum albumin/2% normal horse serum (for anti-PTEN) or TBS/0.1% Tween/5% normal goat serum (for phosphosite-specific antibodies) and applied overnight at 4 °C. Biotinylated secondary antibodies (Vector) were applied at 1:200 dilution for 45 min, and the avidin-biotin complex (Elite ABC, Vector) for 30 min. Vector NovaRed was used as the enzyme substrate to visualize specific antibody localization. […] All slides were counterstained with Harris hematoxylin.\nWe assessed Akt activity in S1 and S2 samples in the rapamycin-treated patients using phosphosite-specific antibodies against the serine/threonine kinase Akt (serine 473) and its downstream substrate PRAS 40 (threonine 246), which serves as a biomarker for Akt activity (Figure 4A). PRAS40 has also been recently shown to inhibit mTOR, and this inhibition is relieved by Akt phosphorylation.\nScoring of immunohistochemical stains. […] Digital scores for PTEN, phospho-S6, and phospho-PRAS40 are based on absolute staining intensity of tumor cells as quantified following false-color conversion. PTEN, phospho-S6, phospho-PRAS40, and Ki-67 were scored in representative and matching areas of consecutive tissue sections (Suppl. Fig. 1), excluding areas with large vessels and/or prominent reactive changes (e.g., reactive astrogliosis or lymphocytic infiltration). […] Quantitative analysis was done using HSI color algorithm based on hue, saturation and intensity. Saturations of the separated cell in the images were quantified in the red-brown hue range to exclude the negative staining area with hematoxylin nuclear staining. To compare the staining intensity of all slides, mean saturation of total cells on each image was quantified and calculated. For Ki-67 staining scoring, separated cells were quantified with red brown hue range (positive staining) and total hue range (all cells) after cell border separation and Ki-67 labeling index was calculated based on these numbers. […]",
  "data": [
    {"compound": "CO[C@H]1C[C@@H]2CC[C@@H](C)[C@@](O)(O2)C(=O)C(=O)N2CCCC[C@H]2C(=O)O[C@H]([C@H](C)C[C@@H]2CC[C@@H](O)[C@H](OC)C2)CC(=O)[C@H](C)/C=C(\\C)[C@@H](O)[C@@H](OC)C(=O)[C@H](C)C[C@H](C)/C=C/C=C/C=C/1C", "note": "[Rapamycin]", "values": [
      {"measurement": "pPRAS 40 Induction", "setting": "2 mg oral daily", "result": "Yes"},
      {"measurement": "pPRAS 40 Induction", "setting": "5 mg oral daily", "result": "No and Yes"},
      {"measurement": "pPRAS 40 Induction", "setting": "10 mg oral daily", "result": "Yes and No"},
      {"measurement": "patients with statistically significant increase in PRAS40 phosphorylation in S2 sample", "setting": "Seven of 14 patients, p < 0.05, Wilcoxon test", "result": 50, "unit": "%"}
    ]}
  ]
}
